{"source": "patent US10669272B2", "about": "“Substituted naphthyridinone compounds useful as T cell activators” (BRISTOL-MYERS SQUIBB COMPANY, priority 2018, dated 2020)", "key": {"human DGKζ": {"target": "T1, human DGKζ (Homo sapiens, UniProt Q13574)", "T1 construct": "TVMV protease cleavage site (C); Hexa-His (C); made in house; host or cells: Sf9 insect cells (baculovirus, Bac-to-Bac)", "T1 sequence (Q13574 with tags, fused parts or gaps isoform Q13574-4)": "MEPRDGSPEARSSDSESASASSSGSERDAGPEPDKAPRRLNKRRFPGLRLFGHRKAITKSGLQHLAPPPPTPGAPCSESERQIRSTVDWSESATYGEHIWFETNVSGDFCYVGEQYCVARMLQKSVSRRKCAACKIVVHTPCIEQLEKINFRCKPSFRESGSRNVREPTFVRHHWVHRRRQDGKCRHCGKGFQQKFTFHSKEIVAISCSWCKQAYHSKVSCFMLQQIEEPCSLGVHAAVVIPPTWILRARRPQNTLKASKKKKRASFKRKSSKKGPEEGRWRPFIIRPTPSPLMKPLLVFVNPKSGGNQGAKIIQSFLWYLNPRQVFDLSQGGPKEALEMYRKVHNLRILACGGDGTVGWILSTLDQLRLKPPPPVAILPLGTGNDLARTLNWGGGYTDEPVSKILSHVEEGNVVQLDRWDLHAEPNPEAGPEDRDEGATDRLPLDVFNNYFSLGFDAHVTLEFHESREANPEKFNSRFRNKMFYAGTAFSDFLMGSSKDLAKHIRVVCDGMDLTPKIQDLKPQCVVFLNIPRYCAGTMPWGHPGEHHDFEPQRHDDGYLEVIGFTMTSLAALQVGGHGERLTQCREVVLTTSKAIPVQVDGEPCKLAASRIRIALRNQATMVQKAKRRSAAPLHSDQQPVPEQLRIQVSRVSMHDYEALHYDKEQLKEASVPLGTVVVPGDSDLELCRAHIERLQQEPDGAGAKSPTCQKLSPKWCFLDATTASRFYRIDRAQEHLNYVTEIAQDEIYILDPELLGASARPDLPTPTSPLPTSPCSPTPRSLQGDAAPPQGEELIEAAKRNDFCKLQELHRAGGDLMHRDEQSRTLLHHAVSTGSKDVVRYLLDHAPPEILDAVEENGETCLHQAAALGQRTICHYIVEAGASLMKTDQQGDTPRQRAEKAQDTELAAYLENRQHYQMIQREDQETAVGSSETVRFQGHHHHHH", "test": "DGKζ LIPGLO assay (extruded liposome substrate), in vitro DGK inhibition", "assay_type": "biochemical", "details": "read-out: DGKz LIPGLO IC50"}, "human DGKα": {"target": "T2, human DGKα (Homo sapiens, UniProt P23743)", "T2 construct": "TVMV protease cleavage site (C); Hexa-His (C); made in house; host or cells: Sf9 insect cells (baculovirus, Bac-to-Bac)", "T2 sequence (P23743 with tags, fused parts or gaps)": "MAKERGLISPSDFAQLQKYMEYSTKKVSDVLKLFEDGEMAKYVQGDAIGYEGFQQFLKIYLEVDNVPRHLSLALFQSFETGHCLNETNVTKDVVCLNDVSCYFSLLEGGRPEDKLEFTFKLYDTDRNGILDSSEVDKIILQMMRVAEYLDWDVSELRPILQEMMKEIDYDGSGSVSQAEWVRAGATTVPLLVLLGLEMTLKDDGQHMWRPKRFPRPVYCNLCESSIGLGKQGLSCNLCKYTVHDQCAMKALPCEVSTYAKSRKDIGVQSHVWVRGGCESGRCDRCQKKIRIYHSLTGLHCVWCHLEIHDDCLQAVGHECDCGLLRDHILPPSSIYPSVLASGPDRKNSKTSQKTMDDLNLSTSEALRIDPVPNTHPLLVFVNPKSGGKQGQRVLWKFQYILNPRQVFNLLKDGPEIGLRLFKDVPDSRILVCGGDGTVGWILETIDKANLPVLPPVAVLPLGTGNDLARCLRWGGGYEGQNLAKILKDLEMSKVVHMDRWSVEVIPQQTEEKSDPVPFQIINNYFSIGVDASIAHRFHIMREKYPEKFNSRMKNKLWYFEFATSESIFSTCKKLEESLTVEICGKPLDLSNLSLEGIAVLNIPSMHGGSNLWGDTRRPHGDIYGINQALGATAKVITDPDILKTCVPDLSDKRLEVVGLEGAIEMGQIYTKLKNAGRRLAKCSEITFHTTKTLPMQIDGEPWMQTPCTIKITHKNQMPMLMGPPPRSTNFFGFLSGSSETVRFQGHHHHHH", "test": "DGKα LIPGLO assay (extruded liposome substrate), in vitro DGK inhibition", "assay_type": "biochemical", "details": "read-out: DGKa LIPGLO IC50"}}, "note": "Like-named read-outs stand apart in the source and are kept apart here."}
{"molecule": "CC[C@H]1CN(C(c2ccc(F)cc2)c2nc(C3CC3)cs2)[C@H](CC)CN1c1cc(=O)n(C)c2ccc(C#N)nc12", "note": "(stereo partly drawn) [Example 1066]", "values": [{"measurement": "IC50", "setting": "human DGKζ; liposome (LIPGLO) assay", "value": 0.03, "unit": "µM"}, {"measurement": "IC50", "setting": "human DGKα; liposome (LIPGLO) assay", "value": 0.028, "unit": "µM"}]}
{"molecule": "CSCC(c1ccc(F)cc1)N1C[C@H](C)N(c2cc(=O)n(C)c3ccc(C#N)nc23)C[C@H]1C", "note": "(single isomer, unassigned) [Example 1319]", "values": [{"measurement": "IC50", "setting": "human DGKζ; liposome (LIPGLO) assay", "value": 0.61, "unit": "µM"}, {"measurement": "IC50", "setting": "human DGKα; liposome (LIPGLO) assay", "value": 0.099, "unit": "µM"}]}
{"molecule": "CC(c1ccc(P(C)(C)=O)cc1)N1C[C@H](C)N(c2c(C#N)c(=O)n(C)c3ccc(C#N)nc23)C[C@H]1C", "note": "(single isomer, unassigned) [Example 1295]", "values": [{"measurement": "IC50", "setting": "human DGKζ; liposome (LIPGLO) assay", "value": 47, "unit": "µM"}, {"measurement": "IC50", "setting": "human DGKα; liposome (LIPGLO) assay", "value": 130, "unit": "µM"}]}
{"molecule": "Cc1ccc(C(c2ccc(Cl)cn2)N2CCN(c3c(C#N)c(=O)n(C)c4ccc(C#N)nc34)C[C@H]2C)cc1", "note": "(single isomer, unassigned) [Example 936]", "values": [{"measurement": "IC50", "setting": "human DGKζ; DGKζ liposome (LIPGLO) assay", "value": 3.3, "unit": "µM"}, {"measurement": "IC50", "setting": "human DGKα; DGKα liposome (LIPGLO) assay", "value": 1, "unit": "µM"}]}
{"molecule": "C[C@@H]1CN(c2cc(=O)n(C)c3ccc(C#N)nc23)[C@@H](C)CN1Cc1ccc(OC(F)(F)F)cc1F", "note": "(single isomer, unassigned) [Example 624]", "values": [{"measurement": "IC50", "setting": "human DGKζ; liposome (LIPGLO) assay", "value": 24, "unit": "µM"}, {"measurement": "IC50", "setting": "human DGKα; liposome (LIPGLO) assay", "value": 0.66, "unit": "µM"}]}
{"molecule": "C[C@@H]1CN(c2c(C#N)c(=O)n(C)c3ccc(C#N)nc23)CCN1C(c1ccccc1)c1cc(F)cc(F)c1", "note": "(stereo partly drawn) [Example 874]", "values": [{"measurement": "IC50", "setting": "human DGKζ; DGKζ liposome (LIPGLO) assay", "value": 2.2, "unit": "µM"}, {"measurement": "IC50", "setting": "human DGKα; DGKα liposome (LIPGLO) assay", "value": 14, "unit": "µM"}]}
{"molecule": "CC(c1ccc(C#N)c(OCCN(C)C)c1)N1C[C@H](C)N(c2cc(=O)n(C)c3ccc(C#N)nc23)C[C@H]1C", "note": "(single isomer, unassigned) [Example 1322]", "values": [{"measurement": "IC50", "setting": "human DGKζ; liposome (LIPGLO) assay", "value": 53, "unit": "µM"}, {"measurement": "IC50", "setting": "human DGKα; liposome (LIPGLO) assay", "value": 130, "unit": "µM"}]}
{"molecule": "C[C@@H]1CN(c2c(C#N)c(=O)n(C)c3ccc(C#N)nc23)CCN1C(c1ccc(F)cc1)c1cncnc1", "note": "(stereo partly drawn) [Example 317, 8-((3R)-4-((4-fluorophenyl)(pyrimidin-5-yl)methyl)-3-methylpiperazin-1-yl)-5-methyl-6-oxo-5,6-dihydro-1,5-naphthyridine-2,7-dicarbonitrile]", "values": [{"measurement": "IC50", "setting": "human DGKζ; liposome (LIPGLO) assay", "value": 13, "unit": "µM"}, {"measurement": "IC50", "setting": "human DGKα; liposome (LIPGLO) assay", "value": 3.8, "unit": "µM"}]}
{"molecule": "CC(c1ccc(Cl)cc1)N1CCN(c2c(C#N)c(=O)n(C)c3ccc(C#N)nc23)C[C@H]1C", "note": "(single isomer, unassigned) [Example 978]", "values": [{"measurement": "IC50", "setting": "human DGKζ; DGKζ liposome (LIPGLO) assay", "value": 4.9, "unit": "µM"}, {"measurement": "IC50", "setting": "human DGKα; DGKα liposome (LIPGLO) assay", "value": 1.3, "unit": "µM"}]}
{"molecule": "C[C@@H]1CN(c2cc(=O)n(C)c3ccc(C#N)nc23)[C@@H](C)CN1C(c1ccc(OC(F)(F)F)cc1)c1ccccn1", "note": "(stereo partly drawn) [Example 377, 8-((2S,5R)-2,5-dimethyl-4-(pyridin-2-yl(4-(trifluoromethoxy)phenyl)methyl)piperazin-1-yl)-5-methyl-6-oxo-5,6-dihydro-1,5-naphthyridine-2-carbonitrile]", "values": [{"measurement": "IC50", "setting": "human DGKζ; liposome (LIPGLO) assay", "value": 3.9, "unit": "µM"}, {"measurement": "IC50", "setting": "human DGKα; liposome (LIPGLO) assay", "value": 0.31, "unit": "µM"}]}
{"molecule": "Cc1cc(C(c2ccc(F)cc2)N2C[C@H](C)N(c3c(C#N)c(=O)n(C)c4ccc(C#N)nc34)C[C@H]2C)no1", "note": "(single isomer, unassigned) [Example 865]", "values": [{"measurement": "IC50", "setting": "human DGKζ; DGKζ liposome (LIPGLO) assay", "value": 14, "unit": "µM"}, {"measurement": "IC50", "setting": "human DGKα; DGKα liposome (LIPGLO) assay", "value": 18, "unit": "µM"}]}
{"molecule": "C[C@@H]1CN(c2cc(=O)n(C)c3ccc(C#N)nc23)[C@@H](C)CN1C(c1ccc(F)cc1)c1ccncn1", "note": "(single isomer, unassigned) [Example 402]", "values": [{"measurement": "IC50", "setting": "human DGKζ; liposome (LIPGLO) assay", "value": 9.3, "unit": "µM"}, {"measurement": "IC50", "setting": "human DGKα; liposome (LIPGLO) assay", "value": 0.82, "unit": "µM"}]}
{"molecule": "COc1ccc(C(C)N2C[C@H](C)N(c3cc(=O)n(C)c4ccc(C#N)nc34)C[C@H]2C)cc1OCCN1CCOCC1", "note": "(stereo partly drawn) [Example 1304]", "values": [{"measurement": "IC50", "setting": "human DGKζ; liposome (LIPGLO) assay", "value": 17, "unit": "µM"}, {"measurement": "IC50", "setting": "human DGKα; liposome (LIPGLO) assay", "value": 110, "unit": "µM"}]}
{"molecule": "CC(c1cc(F)c(F)c(F)c1)N1C[C@H](C)N(c2cc(=O)n(C)c3ccc(C#N)nc23)C[C@H]1C", "note": "(single isomer, unassigned) [Example 1240]", "values": [{"measurement": "IC50", "setting": "human DGKζ; liposome (LIPGLO) assay", "value": 0.15, "unit": "µM"}, {"measurement": "IC50", "setting": "human DGKα; liposome (LIPGLO) assay", "value": 3.5, "unit": "µM"}]}
{"molecule": "CC[C@H]1CN(C(C)c2ccc(OC(F)(F)F)cc2)[C@H](COC)CN1c1cc(=O)n(C)c2ccc(C#N)nc12", "note": "(single isomer, unassigned) [Example 1408]", "values": [{"measurement": "IC50", "setting": "human DGKζ; liposome (LIPGLO) assay", "value": 0.083, "unit": "µM"}, {"measurement": "IC50", "setting": "human DGKα; liposome (LIPGLO) assay", "value": 0.019, "unit": "µM"}]}
{"molecule": "C[C@@H]1CN(c2cc(=O)n(C)c3ccc(C#N)nc23)[C@@H](C)CN1C(c1ccc(F)cc1)c1noc(C(C)(C)C)n1", "note": "(single isomer, unassigned) [Example 764]", "values": [{"measurement": "IC50", "setting": "human DGKζ; DGKζ liposome (LIPGLO) assay", "value": 0.53, "unit": "µM"}, {"measurement": "IC50", "setting": "human DGKα; DGKα liposome (LIPGLO) assay", "value": 0.051, "unit": "µM"}]}
{"molecule": "CCOc1cccc(CN2C[C@H](C)N(c3cc(=O)n(C)c4ccc(C#N)nc34)C[C@H]2C)c1", "note": "[Example 599]", "values": [{"measurement": "IC50", "setting": "human DGKζ; liposome (LIPGLO) assay", "value": 1.9, "unit": "µM"}, {"measurement": "IC50", "setting": "human DGKα; liposome (LIPGLO) assay", "value": 3.1, "unit": "µM"}]}
{"molecule": "C[C@@H]1CN(c2cc(=O)n(C)c3ccc(C#N)nc23)[C@@H](C)CN1C(c1ccc(Cl)cc1)c1ccncn1", "note": "(single isomer, unassigned) [Example 397]", "values": [{"measurement": "IC50", "setting": "human DGKζ; liposome (LIPGLO) assay", "value": 16, "unit": "µM"}, {"measurement": "IC50", "setting": "human DGKα; liposome (LIPGLO) assay", "value": 1.8, "unit": "µM"}]}
{"molecule": "CCOC[C@@H]1CN(c2cc(=O)n(C)c3ccc(C#N)nc23)[C@@H](C)CN1C(C)c1ccc(OC(F)(F)F)cc1", "note": "(single isomer, unassigned) [Example 1397]", "values": [{"measurement": "IC50", "setting": "human DGKζ; liposome (LIPGLO) assay", "value": 0.054, "unit": "µM"}, {"measurement": "IC50", "setting": "human DGKα; liposome (LIPGLO) assay", "value": 1.3, "unit": "µM"}]}
{"molecule": "Cn1c(=O)cc(N2CCN(C(c3ccc(F)cc3)c3ccc(F)cc3)C(COC(F)F)C2)c2nc(C#N)ccc21", "note": "(single isomer, unassigned) [Example 1187]", "values": [{"measurement": "IC50", "setting": "human DGKζ; liposome (LIPGLO) assay", "value": 2.9, "unit": "µM"}, {"measurement": "IC50", "setting": "human DGKα; liposome (LIPGLO) assay", "value": 150, "unit": "µM"}]}
{"molecule": "C[C@@H]1CN(c2cc(=O)n(C)c3ccc(C#N)nc23)[C@@H](C)CN1Cc1cccc2c1OCCN2C(=O)OC(C)(C)C", "note": "[Example 630]", "values": [{"measurement": "IC50", "setting": "human DGKζ; liposome (LIPGLO) assay", "value": 13, "unit": "µM"}, {"measurement": "IC50", "setting": "human DGKα; liposome (LIPGLO) assay", "value": 0.39, "unit": "µM"}]}
